What follows are molecules tested against S. pneumoniae Topoisomerase IV ATPase (ParE) (Streptococcus pneumoniae serotype 4, UniProt Q59961) (assay: S. pneumoniae Topoisomerase IV ATPase inhibition). Conditions: values marked * are an average of two or more data points, 13 µM.
Format: biochemical
In short: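 S. pneumoniae ParE (1.25 nM) ATPase with 160 μM ATP and 5 μg/ml sheared DNA in pH 8.0 Tris, Mg2+, DTT, Brij-35; phosphate detected by malachite green/molybdate at 650 nm. Normalised to 2% DMSO (0%) and 20 μM EDTA (100%); IC50 from 10 concentrations.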

Chain of S. pneumoniae Topoisomerase IV ATPase (ParE) (Q59961 whole entry): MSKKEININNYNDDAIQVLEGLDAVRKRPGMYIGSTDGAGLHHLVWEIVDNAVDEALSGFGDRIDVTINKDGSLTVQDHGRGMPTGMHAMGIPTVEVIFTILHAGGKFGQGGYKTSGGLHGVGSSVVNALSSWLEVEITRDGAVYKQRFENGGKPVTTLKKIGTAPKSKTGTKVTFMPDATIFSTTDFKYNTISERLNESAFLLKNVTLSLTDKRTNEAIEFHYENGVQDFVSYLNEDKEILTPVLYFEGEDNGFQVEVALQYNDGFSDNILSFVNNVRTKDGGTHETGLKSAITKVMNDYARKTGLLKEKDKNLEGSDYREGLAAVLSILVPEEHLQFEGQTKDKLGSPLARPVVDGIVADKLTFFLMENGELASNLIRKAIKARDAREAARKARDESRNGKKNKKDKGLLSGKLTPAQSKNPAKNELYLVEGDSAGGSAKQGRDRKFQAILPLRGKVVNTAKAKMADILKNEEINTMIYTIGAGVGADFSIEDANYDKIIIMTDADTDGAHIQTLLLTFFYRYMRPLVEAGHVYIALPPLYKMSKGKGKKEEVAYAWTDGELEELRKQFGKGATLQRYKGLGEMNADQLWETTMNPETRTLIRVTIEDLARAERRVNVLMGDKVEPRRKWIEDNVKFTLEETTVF

| SMILES | % Inh (13 μM) of S. pneumoniae Topoisomerase IV ATPase |
| --- | --- |
| COc1ccc(C(=O)O)cc1-c1cnc(Nc2ccc(F)c(Cl)c2)nc1-n1ccc(C(F)(F)F)n1 [Example 1128, 3-(2-(3-chloro-4-fluorophenylamino)-4-(3-(trifluoromethyl)-1H-pyrazol-1-yl)pyrimidin-5-yl)-4-methoxybenzoic acid] | 67% |
| COc1ccc(C(=O)O)cc1-c1cnc(Nc2ccc(F)c(Cl)c2)nc1-n1ccc(C(F)(F)F)n1 [Example 1138, 3-(2-(3-chloro-4-fluorophenylamino)-4-(3-(trifluoromethyl)-1H-pyrazol-1-yl)pyrimidin-5-yl)-4-methoxybenzoic acid] | 94% |

Same assay, conditions: values marked * are an average of two or more data points, read-out: % Inh (13 μM) of S. pneumoniae Topoisomerase IV ATPase

| SMILES | inhibition at 13 µM |
| --- | --- |
| Cc1cc(C(F)(F)F)nn1-c1nc(Nc2cc(F)cc(C#N)c2)ncc1-c1cncc(C(=O)O)c1 [Example 1121, 5-(2-(3-cyano-5-fluorophenylamino)-4-(5-methyl-3-(trifluoromethyl)-1H-pyrazol-1-yl)pyrimidin-5-yl)nicotinic acid] | 99% |
| COc1ncc(-c2cnc(Nc3cc(Cl)cc(C#N)c3)nc2-n2nc(C(F)(F)F)cc2C)cc1C(=O)O [Example 1122, 5-(2-(3-chloro-5-cyanophenylamino)-4-(5-methyl-3-(trifluoromethyl)-1H-pyrazol-1-yl)pyrimidin-5-yl)-2-methoxynicotinic acid] | 100% |
| Cc1cc(C(F)(F)F)nn1-c1nc(Nc2cc(Cl)cc(C#N)c2)ncc1-c1cncc(C(=O)O)c1 [Example 1123, 5-(2-(3-chloro-5-cyanophenylamino)-4-(5-methyl-3-(trifluoromethyl)-1H-pyrazol-1-yl)pyrimidin-5-yl)nicotinic acid] | 100% |
| NC(=O)c1cncc(-c2cnc(Nc3ccc(F)c(Cl)c3)nc2-n2ccc(C(F)(F)F)n2)c1 [Example 1124, 5-[2-[(3-chloro-4-fluorophenyl)amino]-4-[3-(trifluoromethyl)pyrazol-1-yl]pyrimidin-5-yl]pyridine-3-carboxamide] | 42% |
| CCNC(=O)c1cncc(-c2cnc(Nc3ccc(F)c(Cl)c3)nc2-n2ccc(C(F)(F)F)n2)c1 [Example 1125, 5-[2-[(3-chloro-4-fluorophenyl)amino]-4-[3-(trifluoromethyl)pyrazol-1-yl]pyrimidin-5-yl]-N-ethylpyridine-3-carboxamide] | 51% |
| COc1cc(Nc2ncc(-c3cncc(C(=O)O)c3)c(-n3nc(C)cc3C(F)F)n2)cc(OC)c1 [Example 1127, 5-(4-(5-(difluoromethyl)-3-methyl-1H-pyrazol-1-yl)-2-(3,5-dimethoxyphenylamino)pyrimidin-5-yl)nicotinic acid] | 100% |
| O=C(O)/C=C/c1cccc(-c2cnc(Nc3ccc(F)c(Cl)c3)cc2N2CCOCC2)c1 [Example 1129] | 83% |
| COCCOc1ncc(-c2cnc(Nc3ccc(F)c(Cl)c3)nc2-n2nc(C(F)(F)F)cc2C)cc1C(=O)O [Example 1130, 5-(2-(3-chloro-4-fluorophenylamino)-4-(5-methyl-3-(trifluoromethyl)-1H-pyrazol-1-yl)pyrimidin-5-yl)-2-(2-methoxyethoxy)nicotinic acid] | 99% |
| COc1nc(OC)c(-c2cnc(Nc3ccc(F)c(Cl)c3)nc2-n2nc(C(F)(F)F)cc2C)cc1C(=O)O [Example 1131, 5-(2-(3-chloro-4-fluorophenylamino)-4-(5-methyl-3-(trifluoromethyl)-1H-pyrazol-1-yl)pyrimidin-5-yl)-2,6-dimethoxynicotinic acid] | 100% |
| COc1nc(OC)c(-c2cnc(Nc3ccc(F)c(Cl)c3)nc2-n2ccc(C(F)(F)F)n2)cc1C(=O)O [Example 1132, 5-(2-(3-chloro-4-fluorophenylamino)-4-(3-(trifluoromethyl)-1H-pyrazol-1-yl)pyrimidin-5-yl)-2,6-dimethoxynicotinic acid] | 100% |
| COCCOc1ncc(-c2cnc(Nc3ccc(F)c(Cl)c3)nc2-n2ccc(C(F)(F)F)n2)cc1C(=O)O [Example 1133, 5-(2-(3-chloro-4-fluorophenylamino)-4-(3-(trifluoromethyl)-1H-pyrazol-1-yl)pyrimidin-5-yl)-2-(2-methoxyethoxy)nicotinic acid] | 100% |
| Cc1cc(C(F)(F)F)nn1-c1nc(Nc2ccc(F)c(Cl)c2)ncc1-c1cnc(OCCO)c(C(=O)O)c1 [Example 1134, 5-(2-(3-chloro-4-fluorophenylamino)-4-(5-methyl-3-(trifluoromethyl)-1H-pyrazol-1-yl)pyrimidin-5-yl)-2-(2-hydroxyethoxy)nicotinic acid] | 100% |
| O=C(O)c1cc(-c2cnc(Nc3ccc(F)c(Cl)c3)nc2-n2ccc(C(F)(F)F)n2)cnc1OCC(F)(F)F [Example 1135, 5-(2-(3-chloro-4-fluorophenylamino)-4-(3-(trifluoromethyl)-1H-pyrazol-1-yl)pyrimidin-5-yl)-2-(2,2,2-trifluoroethoxy)nicotinic acid] | 100% |
| COc1cc(Nc2ncc(-c3cnc(OCCN4CCOCC4)c(C(=O)O)c3)c(-n3nc(C(F)(F)F)cc3C)n2)cc(OC)c1 [Example 1136, 5-(2-(3,5-dimethoxyphenylamino)-4-(5-methyl-3-(trifluoromethyl)-1H-pyrazol-1-yl)pyrimidin-5-yl)-2-(2-morpholinoethoxy)nicotinic acid] | 99% |
| O=C(O)Cn1nccc1-c1cnc(Nc2ccc(F)c(Cl)c2)nc1-n1ccc(C(F)(F)F)n1 [Example 1137, 2-(5-(2-(3-chloro-4-fluorophenylamino)-4-(3-(trifluoromethyl)-1H-pyrazol-1-yl)pyrimidin-5-yl)-1H-pyrazol-1-yl)acetic acid] | 100% |
| COc1c(C(=O)O)cccc1-c1cnc(Nc2ccc(F)c(Cl)c2)nc1-n1ccc(C(F)(F)F)n1 [Example 1139, 3-(2-(3-chloro-4-fluorophenylamino)-4-(3-(trifluoromethyl)-1H-pyrazol-1-yl)pyrimidin-5-yl)-2-methoxybenzoic acid] | 96% |
| O=C(O)c1cc(-c2cnc(Nc3ccc(F)c(Cl)c3)nc2-n2ccc(C(F)(F)F)n2)cnc1OCCN1CCOCC1 [Example 1140, 5-(2-(3-chloro-4-fluorophenylamino)-4-(3-(trifluoromethyl)-1H-pyrazol-1-yl)pyrimidin-5-yl)-2-(2-morpholinoethoxy)nicotinic acid] | 100% |
| Cc1cc(C(F)(F)F)nn1-c1nc(Nc2ccc(F)c(Cl)c2)ncc1-c1cnc(OCCN2CCOCC2)c(C(=O)O)c1 [Example 1141, 5-(2-(3-chloro-4-fluorophenylamino)-4-(5-methyl-3-(trifluoromethyl)-1H-pyrazol-1-yl)pyrimidin-5-yl)-2-(2-morpholinoethoxy)nicotinic acid] | 100% |
| COc1ncc(C(=O)O)cc1-c1cnc(Nc2cc(C)cc(C)c2)nc1-n1nc(C(F)(F)F)cc1C [Example 1142, 5-(2-(3,5-dimethylphenylamino)-4-(5-methyl-3-(trifluoromethyl)-1H-pyrazol-1-yl)pyrimidin-5-yl)-6-methoxynicotinic acid] | 100% |
| COc1cc(Nc2ncc(-c3cnc(OC)c(C(=O)O)c3)c(-n3ccc(C4CC4)n3)n2)cc(OC)c1 [Example 1143, 5-(4-(3-cyclopropyl-1H-pyrazol-1-yl)-2-(3,5-dimethoxyphenylamino)pyrimidin-5-yl)-2-methoxynicotinic acid] | 100% |
| COc1cc(Nc2ncc(-c3cnc(OC)c(C(=O)O)c3)c(-n3nc(C(F)(F)F)nc3C)n2)cc(OC)c1 [Example 1144, 5-(2-(3,5-dimethoxyphenylamino)-4-(5-methyl-3-(trifluoromethyl)-1H-1,2,4-triazol-1-yl)pyrimidin-5-yl)-2-methoxynicotinic acid] | 100% |
| Cc1cc(C)cc(Nc2ncc(-c3cc(C(=O)O)cnc3OCCN(C)C)c(-n3nc(C(F)(F)F)cc3C)n2)c1 [Example 1145, 6-(2-(dimethylamino)ethoxy)-5-(2-(3,5-dimethylphenylamino)-4-(5-methyl-3-(trifluoromethyl)-1H-pyrazol-1-yl)pyrimidin-5-yl)nicotinic acid] | 100% |
| O=C(NCCO)c1cccc(-c2cnc(Nc3ccc(F)c(Cl)c3)nc2-n2ccc(C(F)(F)F)n2)c1 [Example 1146, 3-(2-(3-chloro-4-fluorophenylamino)-4-(3-(trifluoromethyl)-1H-pyrazol-1-yl)pyrimidin-5-yl)-N-(2-hydroxyethyl)benzamide] | 100% |
| NC(=O)c1cccc(-c2cnc(Nc3ccc(F)c(Cl)c3)nc2-n2ccc(C(F)(F)F)n2)c1 [Example 1147, 3-(2-(3-chloro-4-fluorophenylamino)-4-(3-(trifluoromethyl)-1H-pyrazol-1-yl)pyrimidin-5-yl)benzamide] | 100% |
| CN(C)C(=O)c1cccc(-c2cnc(Nc3ccc(F)c(Cl)c3)nc2-n2ccc(C(F)(F)F)n2)c1 [Example 1148, 3-(2-(3-chloro-4-fluorophenylamino)-4-(3-(trifluoromethyl)-1H-pyrazol-1-yl)pyrimidin-5-yl)-N,N-dimethylbenzamide] | 24% |
| CON(C)C(=O)c1cccc(-c2cnc(Nc3ccc(F)c(Cl)c3)nc2-n2ccc(C(F)(F)F)n2)c1 [Example 1149, 3-(2-(3-chloro-4-fluorophenylamino)-4-(3-(trifluoromethyl)-1H-pyrazol-1-yl)pyrimidin-5-yl)-N-methoxy-N-methylbenzamide] | 100% |
| CC(=O)Nc1cc(C(=O)O)cc(-c2cnc(Nc3ccc(F)c(Cl)c3)nc2-n2ccc(C(F)(F)F)n2)c1 [Example 1150, 3-acetamido-5-(2-(3-chloro-4-fluorophenylamino)-4-(3-(trifluoromethyl)-1H-pyrazol-1-yl)pyrimidin-5-yl)benzoic acid] | 100% |
| O=C(c1cccc(-c2cnc(Nc3ccc(F)c(Cl)c3)nc2-n2ccc(C(F)(F)F)n2)c1)N1CCOCC1 [Example 1151, (3-(2-(3-chloro-4-fluorophenylamino)-4-(3-(trifluoromethyl)-1H-pyrazol-1-yl)pyrimidin-5-yl)phenyl)(morpholino)methanone] | 100% |

Source: patent publication US20100137313A1 (ASTRAZENECA AB, priority 2008, published 2010)
